This passage reports EC50 and Ki results from patent US7598261B2, “Spirocyclic heterocyclic derivatives and methods of their use” (Adolor Corporation, priority 2005, dated 2009).

Assay [1] deals with T1, cloned human δ opioid receptor (Homo sapiens, UniProt P41143).
T1 construct: expressed in transfected cells; host or cells: CHO cells (membrane preparations)
Nature of the assay: Receptor-mediated [35S]GTPγS binding (agonist potency). The conditions noted are these: stimulation of [35S]GTPγS binding, membranes with cloned human δ opioid receptor; read-out: in vitro δ agonist activity (EC50). The class given is biochemical. How it is done: The potency and efficacy of compounds at each of the receptors are assessed by modifications of the methods of Selley et al., 1997 and Traynor and Nahorski, 1995 using receptor-mediated [^35S]GTPγS binding in the same membrane preparations used to measure receptor binding. Assays are carried out in 96-well FlashPlates® (Perkin Elmer Life Sciences, Inc, Boston, Mass.). Membranes prepared from CHO cells expressing the appropriate receptor (50-100 μg of protein) are added to assay mixtures containing agonist with or without antagonists, 100 pM [^35S]GTPγS (approx. 100,000 dpm), 3.0 μM GDP, 75 mM NaCl, 15 mM MgCl2, 1.0 mM ethylene glycol-bis(β-aminoethyl ether)-N,N,N′,N′-tetracetic acid, 1.1 mM dithiothreitol, 10 μg/mL leupeptin, 10 μg/mL pepstatin A, 200 μg/mL bacitracin, and 0.5 μg/mL aprotinin in 50 mM Tris-HCl buffer, pH 7.8. After incubation at room temperature for one hour, the plates are sealed, centrifuged at 800×g in a swinging bucket rotor for 5 min and bound radioactivity determined with a TopCount microplate scintillation counter (Packard Instrument Co., Meriden, Conn.).
EC50 values for agonists are determined from nonlinear regression fits of 8- or 12-point titration curves to the 4-parameter equation for a sigmoidal dose-response with a slope factor of 1.0 using GraphPad Prism® version 3.00 for Windows (GraphPad Software, San Diego, Calif.).
The potencies of the compounds were determined by testing the ability of a range of concentrations of each compound to inhibit the binding of the non-selective opioid antagonist, [^3H]diprenorphine, to the cloned human μ, κ, and δ opioid receptors, expressed in separate cell lines. […] These compounds display high selectivity δ/κ and δ/μ (at least 10-fold). The potencies of the agonists were assessed by their abilities to stimulate [^35S]GTPγS binding to membranes containing the cloned human δ opioid receptors.

In assay [2] the target is T1, cloned human δ opioid receptor. Put plainly: [3H]diprenorphine receptor binding, δ opioid receptor. The conditions noted are these: inhibition of [3H]diprenorphine binding, read-out: affinity (Ki value), delta opioid receptor. How it is done: (§1) The potencies of the compounds listed in Table 2 were determined by testing the ability of a range of concentrations of each compound to inhibit the binding of the non-selective opioid antagonist, [^3H]diprenorphine, to the cloned human μ, κ, and δ opioid receptors, expressed in separate cell lines. IC50 values were obtained by nonlinear analysis of the data using GraphPad Prism version 3.00 for Windows (GraphPad Software, San Diego). Ki values were obtained by Cheng-Prusoff corrections of IC50 values.
(§2) The receptor binding method (DeHaven and DeHaven-Hudkins, 1998) was a modification of the method of Raynor et al. (1994). After dilution in buffer A and homogenization as before, membrane proteins (10-80 μg) in 250 μL were added to mixtures containing test compound and [^3H]diprenorphine (0.5 to 1.0 nM, 40,000 to 50,000 dpm) in 250 μL of buffer A in 96-well deep-well polystyrene titer plates (Beckman). […] The filters were rinsed 4 times with 1 mL of cold 50 mM Tris HCl, pH 7.8 and radioactivity remaining on the filters determined by scintillation spectroscopy. Nonspecific binding was determined by the minimum values of the titration curves and was confirmed by separate assay wells containing 10 μM naloxone. Ki values were determined by Cheng-Prusoff corrections of IC50 values derived from nonlinear regression fits of 12 point titration curves using GraphPad Prism® version 3.00 for Windows (GraphPad Software, San Diego, Calif.).
To determine the equilibrium dissociation constant for the inhibitors (Ki), radioligand bound (cpm) in the presence of various concentrations of test compounds was measured. The concentration to give half-maximal inhibition (EC50) of radioligand binding was determined from a best nonlinear regression fit to the following equation, […]
The potencies of the compounds were determined by testing the ability of a range of concentrations of each compound to inhibit the binding of the non-selective opioid antagonist, [^3H]diprenorphine, to the cloned human μ, κ, and δ opioid receptors, expressed in separate cell lines. […]

Assay [3] concerns the target T2, cloned human μ opioid receptor (Homo sapiens, UniProt P35372).
T2 construct: expressed in transfected cells; host or cells: CHO cells (membrane preparations)
Put plainly: [3H]diprenorphine receptor binding, μ opioid receptor. The note with it: inhibition of [3H]diprenorphine binding, read-out: affinity (Ki value), mu opioid receptor. How it is done: as §1
as §2, with “(1994).” for “(1994). After dilution in buffer A and homogenization as before, membrane proteins (10-80 μg) in 250 μL were added to mixtures containing test compound and [^3H]diprenorphine (0.5 to 1.0 nM, 40,000 to 50,000 dpm) in 250 μL of buffer A in 96-well deep-well polystyrene titer plates (Beckman).”
(§3) To determine the equilibrium dissociation constant for the inhibitors (Ki), radioligand bound (cpm) in the presence of various concentrations of test compounds was measured. […]

Assay [4] addresses T3, cloned human κ opioid receptor (Homo sapiens, UniProt P41145).
T3 construct: expressed in transfected cells; host or cells: CHO cells (membrane preparations)
Put plainly: [3H]diprenorphine receptor binding, κ opioid receptor. The conditions noted are these: inhibition of [3H]diprenorphine binding, read-out: affinity (Ki value), kappa opioid receptor. How it is done: as §1
as §2, with “(1994).” for “(1994). After dilution in buffer A and homogenization as before, membrane proteins (10-80 μg) in 250 μL were added to mixtures containing test compound and [^3H]diprenorphine (0.5 to 1.0 nM, 40,000 to 50,000 dpm) in 250 μL of buffer A in 96-well deep-well polystyrene titer plates (Beckman).”
as §3

The structures appear in SMILES notation.

T1 sequence (P41143 whole entry): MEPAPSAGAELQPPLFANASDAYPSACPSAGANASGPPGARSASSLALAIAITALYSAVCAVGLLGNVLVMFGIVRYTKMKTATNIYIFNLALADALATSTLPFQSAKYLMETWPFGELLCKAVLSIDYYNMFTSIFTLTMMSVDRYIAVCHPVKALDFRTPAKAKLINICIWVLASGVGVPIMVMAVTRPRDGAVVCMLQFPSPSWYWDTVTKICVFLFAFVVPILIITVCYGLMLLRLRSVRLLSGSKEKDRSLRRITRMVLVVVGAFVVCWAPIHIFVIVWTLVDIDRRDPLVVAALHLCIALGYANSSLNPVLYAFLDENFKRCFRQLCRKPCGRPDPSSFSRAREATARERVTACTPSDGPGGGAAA
T2 sequence (P35372 whole entry): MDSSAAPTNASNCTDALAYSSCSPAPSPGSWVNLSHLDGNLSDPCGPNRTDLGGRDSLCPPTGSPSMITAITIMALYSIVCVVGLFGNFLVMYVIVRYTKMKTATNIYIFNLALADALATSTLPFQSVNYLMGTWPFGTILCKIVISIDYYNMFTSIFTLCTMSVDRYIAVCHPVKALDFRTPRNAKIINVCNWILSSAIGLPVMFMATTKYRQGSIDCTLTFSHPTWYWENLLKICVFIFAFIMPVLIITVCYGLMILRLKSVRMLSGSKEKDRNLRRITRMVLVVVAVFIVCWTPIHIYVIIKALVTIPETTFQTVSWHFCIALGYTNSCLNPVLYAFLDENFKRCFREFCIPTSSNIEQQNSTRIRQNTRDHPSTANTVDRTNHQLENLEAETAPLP
T3 sequence (P41145 whole entry): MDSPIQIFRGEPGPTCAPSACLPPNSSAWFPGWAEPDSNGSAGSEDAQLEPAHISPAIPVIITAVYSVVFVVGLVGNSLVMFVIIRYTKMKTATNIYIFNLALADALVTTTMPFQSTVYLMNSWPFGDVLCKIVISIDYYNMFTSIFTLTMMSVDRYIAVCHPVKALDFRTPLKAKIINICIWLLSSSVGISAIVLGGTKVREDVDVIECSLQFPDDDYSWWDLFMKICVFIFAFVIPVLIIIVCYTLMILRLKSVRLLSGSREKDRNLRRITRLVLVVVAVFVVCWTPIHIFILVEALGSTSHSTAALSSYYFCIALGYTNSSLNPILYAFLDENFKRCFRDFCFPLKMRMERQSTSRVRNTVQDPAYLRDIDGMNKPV

`CCN(CC)C(=O)c1ccc(C2CC3(CCNCC3)Oc3ccc(F)cc32)c(O)c1` (single isomer, unassigned) [61A]: the concentration giving a half-maximal response (EC50) in assay [1] stood at 16.8 nM. Also, the Ki in assay [2] amounted to 0.59 nM.
In the case of `CC(=O)c1ccc(C2=CC3(CCNCC3)Oc3ccccc32)cc1` [33M], the figures for the Ki in assay [3], in assay [4] and in assay [2] were > 1000 nM, > 1000 nM and 9.7 nM, respectively. In addition, in assay [1], the EC50 was found to be 287 nM.
Regarding `CCN(CC)C(=O)c1ccc(C2CC3(CCNCC3)Oc3ccc(F)cc32)c(O)c1` (single isomer, unassigned) [61B], in assay [1], the EC50 amounted to 1280 nM. The Ki in assay [2] stood at 75 nM.

For orientation: EC50 means the concentration that produces a half-maximal response.
